Data reported in a melting point compilation (Tetko et al.; mined from patent text by program, amines drawn as free bases though some values may be those of a salt).

Compound | melting point
O=C(CN1CCOCC1)Nc1ccc2c(c1)Cc1cn[nH]c1-2 | 141 to 148 °C
OC(c1cc(-c2ccc(F)cc2)c(-c2ccc(F)cc2)[nH]1)(C(F)(F)F)C(F)(F)F | 112 to 113 °C
CC1(C)CC(CN2CCCNC2=N[N+](=O)[O-])CO1 (stereo not drawn) | 109 to 110 °C
CCCCCCCCCCCCCCCCSCC(CNS(=O)(=O)CCCCl)n1nnnc1C (stereo not drawn) | 62 to 62.5 °C
CCCOCCOC(=O)C1=C(C)NC(C)=C(C(=O)C(C)S(=O)(=O)NC)C1c1cccc([N+](=O)[O-])c1 (stereo not drawn) | 120 to 123 °C
Nc1cc(N)cc(C(c2c(O)c3c(oc2=O)CCCCCC3)C2CC2)c1 (stereo not drawn) | 87 °C
COc1cc(NC(=O)CCCCCN2CCN(c3ccc(Cl)c(Cl)c3)CC2)c2nccc(C)c2c1 | 99 to 100 °C
CSc1cc2c(cc1C(F)(F)F)N(C(=O)Nc1cccc(C(=O)Nc3ccncc3)c1)CC2 | > 200 °C
CCc1[nH]n(C2CCCC2)c2nc(Cc3ccc(OCc4nnn[nH]4)cc3)nc(=O)c1-2 | 240 to 242 °C
CO[C@H]1CN(c2c(F)c(N)c3c(=O)c(C(=O)O)cn(C4CC4)c3c2F)C[C@H]1N (relative stereo) | 222 to 223 °C
CCOC(=O)CN1C(=O)C(NC(=O)Cc2ccc(Cl)cc2)N=C(c2ccccc2)c2ccccc21 (stereo not drawn) | 205 to 207 °C
COc1ccc(C=CC(=O)N2CCN(C(=O)C=Cc3ccc(OC)c(C(F)F)c3)CC2)cc1C(F)F | 259 to 261 °C
COC(=O)c1nc(CN=[N+]=[N-])n2c1CN=C(c1ccccc1Cl)c1cc(Cl)ccc1-2 | 187 to 189 °C
CS(=O)(=O)Oc1ccc2c(c1)[nH]c(=O)c1c3ccc(OS(C)(=O)=O)cc3oc21 | > 300 °C
O=[N+]([O-])c1cc(S(=O)(=O)NC(CO)CO)sc1Cl | 132 °C
CC(=O)Nc1cc(O)c(C(=O)CCCCl)cc1Cl | 103 to 106 °C
Cc1cc(C(F)(F)F)nc(N(C(N)=O)c2ccccc2C(F)(F)F)n1 | 150 to 153 °C
COc1ccc(-c2nc(/C=C/c3nccn3C)nc3cc(OC)c(OC)cc23)cc1OC | 180 to 181 °C
CCCC(CCC)N(C[C@H]1CCC[C@H](CN(C(=O)Nc2ccc(N(C)C)cc2)C(CCC)CCC)C1)C(=O)Nc1ccc(N(C)C)cc1 (relative stereo) | 122 to 126 °C
COC(=O)c1cc(OCC=C(Cl)Cl)cc(Cl)c1OC | 103 °C
OC1(CNc2c(Br)cnc3cc(Cl)ccc23)CCCCC1 | 151 to 154 °C
CCOC(=O)Nc1cc(I)c(NS(C)(=O)=O)cc1OC | 153 to 155 °C
COc1ccc(C#Cc2ccc(C(=O)O)s2)cc1C12CC3CC(CC(C3)C1)C2 | 244 to 245 °C
CC(=O)c1ccc2c(c1)CC(NC(=O)C(F)(F)F)C2 (stereo not drawn) | 112 to 114 °C
CN1CCC(c2c[nH]c3ccc(C(=O)c4ccc(OC(F)(F)F)cc4)cc23)CC1 | 172 to 175 °C
COC(=O)c1ccc2c(c1)C(SCCI)c1ccccc1CO2 (stereo not drawn) | 111 to 113 °C
CSc1nn2c(N(C)C)cc(C)nc2c1S(=O)(=O)c1ccc(C(C)C)cc1 | 222 to 224 °C

Compound | melting point
CCOC(=O)C(=CNNc1c(Cl)cc(C(F)(F)F)cc1Cl)C(=O)OCC | 86 °C
CCOC(=O)N1CCNC1=Nc1ccc(Cl)cc1Cl | 138 to 139 °C
CCCn1c(CCOC)nc2c(N)nc3cc(OC4CCOC4)ccc3c21 (stereo not drawn) | 192 to 194 °C
Cc1cc(I)ccc1-n1c(C(F)(F)F)nn(C)c1=S | 104 to 107 °C
COC(=O)c1ccc(Cn2nnc3ccc(NC(=O)OC4CCCC4)cc32)c(OC)c1 | 142 to 143 °C
CC(C)(C)OC(=O)N1CCN(c2ccc(-c3ccnc(Cl)n3)cn2)CC1 | 182 to 183 °C
CCCCCCCCCCOc1ccc(C(=O)Nc2cc(CCC(=O)CC3CCCCCC3)ccc2C(C)(C)C)cc1 | 98 to 99 °C
Cc1c(NC(=O)c2ccc(OC[C@@H]3CCCO3)cc2)ccc2cc(CN[C@H](C)C(C)(C)C)cnc12 | 140 to 141 °C
CC(C)(C)c1cc(CN2CC(O)C2)cc(C(C)(C)C)c1O | 139 to 142 °C
O=c1[nH]c2cc(C(F)(F)F)c(C(F)(F)F)cc2[nH]c1=O | > 250 °C
N#Cc1ccc(CN2CCNC2=O)cc1 | 127 to 133 °C
COc1cc(C(=O)c2c[nH]c(-c3c[nH]c4ccccc34)n2)cc(OC)c1OC | 208 to 210 °C
CC(=O)OCC1OC(n2cc(Cc3ccc(Br)s3)c3c(Cl)cccc32)C(OC(C)=O)C(OC(C)=O)C1OC(C)=O (stereo not drawn) | 185 to 187 °C
OC1C2=C(CCN1CCCCc1c[nH]c3ccccc13)c1ccccc1C2 (stereo not drawn) | 205 to 208 °C
CCNC(=O)n1nc(Oc2c(Cl)cc(C(F)(F)F)cc2[N+](=O)[O-])cc1C | 98 to 99 °C
C[C@H](Oc1c(I)c(C(=O)NC(CO)CO)c(I)c(C(=O)NC(CO)CO)c1I)C(N)=O | 110 °C
CCc1ccc(NCc2ccc(N(C)C)cc2)cc1 | 64 to 66 °C
CCN1CCCC1CNC(=O)c1c(O)ccc(Br)c1OC (stereo not drawn) | 62 to 63 °C
CC1N=C(N(C)N)NN=C1c1ccccc1 (stereo not drawn) | 140 to 141 °C
CC1(C)CC(N(CCO)c2c([O-])[c+](N(CCO)C3CC(C)(C)NC(C)(C)C3)[c+]2[O-])CC(C)(C)N1 | 309 to 311 °C
CCCCCCCCCCCCCCOC(=O)CCCCc1cc(OC(C)=O)c(OC(C)=O)c([N+](=O)[O-])c1 | 46 to 47 °C
C=CCn1nc(C)c(CC(=O)O)c1C | 139 to 140 °C
COC(=O)C(CSC(=O)c1ccccc1)NC(=O)C(=O)NC(CSC(=O)c1ccccc1)C(=O)OC (stereo not drawn) | 185 to 186 °C
CCN(C(=S)Nc1cc(Cl)ccc1C)c1c(C)nn(C)c1C | 144 to 145 °C
OCc1cc(Br)cnc1Cl | 86.7 to 87.5 °C
CN1CC(c2ccc(Nc3cc(-c4cccc(N5Cc6cc(C(C)(C)C)ccc6C5=O)c4CO)cn(C)c3=O)nc2)C1 | 201 to 202 °C
CO/N=C1\CCCC[C@@H]1NC(=O)c1cnc(O[C@@H](C)C(F)(F)F)c(-c2ccc(Cl)cc2)n1 | 120 to 123 °C

Further lines, results first:

melting point | Compound
160 to 161 °C | CCn1ncc2c(O)c(C(=O)O)c(CCc3ccccc3)nc21
204 to 205 °C | CCOc1cc2c(cc1S(N)(=O)=O)C(CNC(=O)c1cc(Cl)ccc1OC)CCO2 (stereo not drawn)
182 to 184 °C | COc1cc(OC)nc(-c2c(C)[nH]c3ccccc23)n1
166 to 169 °C | Cn1ncnc1COc1nc2c(cc1-c1ccoc1)nnn2-c1c(F)cccc1F
48 to 50 °C | Cc1nc(N2CCCN(Cc3ccc(F)cc3)C2=O)sc1C(=O)NCc1cccnc1
118 to 120 °C | CCOC(=O)C=Cc1cc(C=CS(=O)(=O)c2ccccc2)cc(Cc2cccnc2)c1
178 °C | CCOC(=O)C1=C(C)NC(C)=C(C(=O)OC)C1c1ccccc1C#N (stereo not drawn)
192 to 196 °C | COc1ccc(-c2ccc(C(=O)O)c(C(=O)O)c2)c2c1OCCO2
291 to 293 °C | COc1cc(C(=O)NS(=O)(=O)c2ccccc2Cl)ccc1Cn1cc(/C=C/C(=O)N2CCCC2)c2ccc(/C=C/C(=O)N3CCCC3)cc21
276 to 279 °C | COc1ccc(/C=C/C2=NS(=O)(=O)c3ccccc3N2)cc1OC
161 to 162 °C | COC=C1C(=O)N(OCc2ccccc2)C(=O)c2ccccc21
197 to 199 °C | O=C(O)COc1cccc2c1CCc1sc(S(=O)(=O)C(c3ccc(Cl)cc3)c3ccc(Cl)cc3)nc1-2
163 to 164 °C | O=C(O)COc1ccc2c(-c3ccccc3F)csc2c1Cl
173 to 174 °C | CC(=O)N(CCCC(=O)O)C(c1ccccc1)c1ccccc1
286 to 287 °C | CCOc1csc2c(=O)c(C(N)=O)cn(C)c12
102 to 103 °C | COC(=O)c1ccnc(-c2cccc3cc(Cc4cc(F)cc(Cl)c4)sc23)c1
130 to 131 °C | Cc1ccccc1-c1c(C(=O)N(C)Cc2cc(C(F)(F)F)cc(C(F)(F)F)c2)c(=O)oc2ccccc12
138 to 139 °C | CCn1cc(CC(=O)O)c(OCCCn2cc(C(=O)NCc3ccc(Cl)cc3Cl)c(OC(C)C)n2)n1
163 to 166 °C | COc1c(NC(=O)c2ccccc2)cccc1C(=O)NC1C(Cl)=CC(C(F)(c2ccc(Cl)cc2)C(F)(F)F)=CC1(Cl)OC (stereo not drawn)
69.5 to 71 °C | COc1ccccc1N1CCN(CCNc2ccccc2OC(F)(F)F)CC1

melting point | Compound
200 °C | COc1ccc(S(=O)(=O)N(CC(N)=O)c2ccc(Cl)cc2Cc2cc(Cl)ccc2Cl)cc1OC
116 to 117 °C | CC(C)C[C@H](NC(=O)COc1ccc(Cl)cc1)C(=O)N[C@@H](Cc1ccccc1)C(=O)CSCc1ccco1
120 to 122 °C | CSc1ccc2c3c(cccc13)C(=O)N2CCCC#N
85 to 87 °C | CC1Sc2nc(SCc3ccccc3)nn2C1=O (stereo not drawn)
71 to 72 °C | N#Cc1nn(-c2ccccc2)c(OC(F)F)c1CO
201 to 203 °C | COC(=O)c1ccc(C(=O)NS(=O)(=O)c2ccc(CCNC(=O)COc3ccccc3)cc2)cn1
128 °C | COc1ccc(C(=O)Nc2ccccc2C(O)c2ccccn2)cc1 (stereo not drawn)
173 to 175 °C | CC(O)c1cc2cc(OCC(=O)O)c(Cl)c(Cl)c2s1 (stereo not drawn)
241 to 244 °C | O=C(c1ccccc1)N1CCc2[nH]c3cccc(-c4ccccc4F)c3c2CC1
194 to 195 °C | O=C(N[C@H](Cc1ccc(C(F)(F)F)cc1)[C@@H](O)c1cccc2ccccc12)c1ccc(F)cc1 (racemic)
116 to 118 °C | CC(=NO)c1ccccc1Nc1c(Cl)ccc(C)c1Cl
202 to 203 °C | CS(=O)(=O)CCCOc1ccc(/C=C/C(=O)O)c(Oc2ncc(C(F)(F)F)cc2Cl)c1
198 to 200 °C | COc1cc(C)nc(NC(=O)NS(=O)(=O)c2ccccc2C(CF)OC(C)=O)n1 (stereo not drawn)
141 to 144 °C | O=C(O)c1cc2cc(Cl)ccc2nc1NC1(C(=O)O)CCc2ccccc21 (stereo not drawn)
218 to 221 °C | Cc1ccc(-c2cc(CO)c3[nH]c(=O)ccc3c2)c(C)n1
89 to 91 °C | CN(C(=O)Cc1ccccc1)c1ccc(OC23CC4CC(CC(C4)C2)C3)cc1
202 to 204 °C | CCCC(NS(=O)(=O)c1ccc(Cl)cc1)C(=O)Nc1ccc(CC(=O)O)cc1 (racemic)
110 to 114 °C | O[C@@H]1c2ccccc2CC[C@H]1NCc1ccccc1 (relative stereo)
145 °C | O=C1c2ccccc2C(=O)N1OCc1ccco1
